# Measurements as given in patent publication US20240228488A1 (TAKEDA PHARMACEUTICAL COMPANY LIMITED, priority 2021, published 2024).
# Target: human activated kallikrein enzyme (Homo sapiens, UniProt P03952)
# Assay: Plasma kallikrein inhibition, fluorogenic PFR-AMC substrate, 500 pM activated kallikrein format
# Format: biochemical
# Details: 500 pM activated kallikrein, 300 uM PFR-AMC, 30 min preincubation, 10 min reaction; read-out: Primary Dose Response Assay: Average EC50
# In short: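 500 pM enz + cpd, 30 min RT preinc; start w/ PFR-AMC 300 uM; 10 min RT; Ex380/Em460. Buffer: Tris 20 mM pH 7.5, EDTA 1 mM, NaCl 150 mM, PEG-400 0.1%, Triton 0.1%. EC50.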
# Chain of human activated kallikrein enzyme (P03952 391-638 limits assumed): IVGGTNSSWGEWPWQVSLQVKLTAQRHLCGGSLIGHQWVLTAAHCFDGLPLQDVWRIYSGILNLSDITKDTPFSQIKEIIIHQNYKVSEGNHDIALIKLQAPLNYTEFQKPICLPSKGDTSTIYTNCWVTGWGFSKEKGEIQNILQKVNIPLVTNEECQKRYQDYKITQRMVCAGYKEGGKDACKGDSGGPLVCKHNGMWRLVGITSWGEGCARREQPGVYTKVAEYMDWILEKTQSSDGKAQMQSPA
# Chain of human activated kallikrein enzyme (P03952 20-390 partner limits assumed): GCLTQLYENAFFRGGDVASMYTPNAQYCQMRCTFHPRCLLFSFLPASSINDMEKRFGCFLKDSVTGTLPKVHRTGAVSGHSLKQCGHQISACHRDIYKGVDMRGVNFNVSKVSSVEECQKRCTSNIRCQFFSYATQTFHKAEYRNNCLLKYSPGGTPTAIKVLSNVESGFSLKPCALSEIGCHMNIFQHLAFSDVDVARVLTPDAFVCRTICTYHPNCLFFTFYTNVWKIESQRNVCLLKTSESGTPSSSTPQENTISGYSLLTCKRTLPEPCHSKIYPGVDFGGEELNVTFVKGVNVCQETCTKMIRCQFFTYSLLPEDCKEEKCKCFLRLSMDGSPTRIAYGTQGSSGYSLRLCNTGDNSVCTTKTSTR
row,Compound,EC50 [nM]
1,"Cc1ccnc([C@H]2C[C@@H]2C(=O)Nc2ccc(F)c(OCc3cn4cc(C5CC5)cc(N5CC(=O)N(C)C5=O)c4n3)c2)n1 [Example 657, (1S,2S)—N-(3-((6-cyclopropyl-8-(3-methyl-2,4-dioxoimidazolidin-1-yl)imidazo[1,2-a]pyridin-2-yl)methoxy)-4-fluorophenyl)-2-(4-methylpyrimidin-2-yl)cyclopropane-1-carboxamide]",< 1
2,"Cc1ccnc([C@H]2C[C@@H]2C(=O)Nc2cc(OC(C)c3cn4cc(C5CC5)cc(N5CCOC5=O)c4n3)cnn2)n1 (stereo partly drawn) [Example 37, (1S,2S)-N-(5-(1-(6-cyclopropyl-8-(2-oxooxazolidin-3-yl)imidazo[1,2-α]pyridin-2-yl)ethoxy)pyridazin-3-yl)-2-(4-methylpyrimidin-2-yl)cyclopropane-1-carboxamide]",< 1
3,"O=C(Nc1cc(NCc2cn3cc(C4CC4)cc(Cl)c3n2)ncn1)[C@H]1C[C@@H]1c1cccc(Cl)c1 (racemic) [Example 59, rac-(1S*,2S*)-N-(6-(((8-chloro-6-cyclopropylimidazo[1,2-α]pyridin-2-yl)methyl)amino)pyrimidin-4-yl)-2-(3-chlorophenyl)cyclopropane-1-carboxamide]",1 to 10
4,"Cc1ccnc([C@H]2C[C@@H]2C(=O)Nc2cc(N[C@H](C)c3cn4cc(C5CC5)cc(N5C(=O)N(C)C(=O)C56COC6)c4n3)ncn2)n1 [Example 420, (1S,2S)-N-(6-(((R)-1-(6-cyclopropyl-8-(7-methyl-6,8-dioxo-2-oxa-5,7-diazaspiro[3.4]octan-5-yl)imidazo[1,2-a]pyridin-2-yl)ethyl)amino)pyrimidin-4-yl)-2-(4-methylpyrimidin-2-yl)cyclopropane-1-carboxamide]",< 1
5,"CN1C(=O)CN(c2cc(C3CC3)cn3cc(CNc4cc(NC(=O)C5CC5(F)c5cccc(Cl)c5)ncn4)nc23)C1=O (racemic) [Example 329, rac-2-(3-chlorophenyl)-N-(6-(((6-cyclopropyl-8-(3-methyl-2,4-dioxoimidazolidin-1-yl)imidazo[1,2-a]pyridin-2-yl)methyl)amino)pyrimidin-4-yl)-2-fluorocyclopropane-1-carboxamide]",1 to 10
6,"O=C(Nc1cc(NCc2cn3cc(C4CC4)cc(N4CCOCC4=O)c3n2)ncn1)[C@H]1C[C@@H]1c1cccc(Cl)c1 (racemic) [Example 74, rac-(1S*,2S*)-2-(3-chlorophenyl)-N-(6-(((6-cyclopropyl-8-(3-oxomorpholino)imidazo[1,2-a]pyridin-2-yl)methyl)amino)pyrimidin-4-yl)cyclopropane-1-carboxamide]",< 1
7,"O=C(Nc1cc(NCc2cn3cc(C4CC4)ccc3n2)ncn1)[C@@H]1C[C@H]1c1cccc(Cl)c1 (single isomer, unassigned) [Example 56]",100 to 1000
8,"O=C(Nc1cn(Cc2cn3cc(C4CC4)ccc3n2)nn1)[C@H]1C[C@@H]1c1cccc(Cl)c1 (racemic) [Example 593, rac-(1S*,2S*)-2-(3-chlorophenyl)-N-(1-((6-cyclopropylimidazo[1,2-a]pyridin-2-yl)methyl)-1H-1,2,3-triazol-4-yl)cyclopropane-1-carboxamide]",> 6000
9,"Cc1ccnc([C@H]2C[C@@H]2C(=O)Nc2cc(N[C@@H](C)c3cn4cc(C(F)F)cc(N5CC(=O)N(C)C5=O)c4n3)ncn2)n1 [Example 416, (1S,2S)-N-(6-(((S)-1-(6-(difluoromethyl)-8-(3-methyl-2,4-dioxoimidazolidin-1-yl)imidazo[1,2-a]pyridin-2-yl)ethyl)amino)pyrimidin-4-yl)-2-(4-methylpyrimidin-2-yl)cyclopropane-1-carboxamide]",10 to 100
10,"Cc1ccnc([C@H]2C[C@@H]2C(=O)Nc2cc3c(cn2)nnn3Cc2cn3cc(C4CC4)cc(N4CC(=O)N(C)C4=O)c3n2)n1 [Example I-635, (1S,2S)—N-(1-((6-cyclopropyl-8-(3-methyl-2,4-dioxoimidazolidin-1-yl)imidazo[1,2-a]pyridin-2-yl)methyl)-1H-[1,2,3]triazolo[4,5-c]pyridin-6-yl)-2-(4-methylpyrimidin-2-yl)cyclopropane-1-carboxamide]",< 1
11,"O=C(Nc1cc(NCc2cn3cc(C4CC4)cc(N4CCCC4=O)c3n2)ncn1)[C@H]1C[C@@H]1c1cccc(Cl)c1 (racemic) [Example 58, rac-(1S*,2S*)-2-(3-chlorophenyl)-N-(6-(((6-cyclopropyl-8-(2-oxopyrrolidin-1-yl)imidazo[1,2-α]pyridin-2-yl)methyl)amino)pyrimidin-4-yl)cyclopropane-1-carboxamide]",1 to 10
12,"O=C(Nc1cc(NCc2cn3cc(C4CC4)cc(N4CCCC4C(F)(F)F)c3n2)ncn1)[C@H]1C[C@@H]1c1cccc(Cl)c1 (stereo partly drawn) [Example I-158, (1S,2S)-2-(3-chlorophenyl)-N-(6-(((6-cyclopropyl-8-(2-(trifluoromethyl)pyrrolidin-1-yl)imidazo[1,2-a]pyridin-2-yl)methyl)amino)pyrimidin-4-yl)cyclopropane-1-carboxamide]",100 to 1000
13,"O=C(Nc1cc(NCc2cn3cc(C4CC4)ccc3n2)ncn1)[C@H]1C[C@@H]1c1cccc(Cl)c1F (racemic) [Example 43, rac-(1S*,2S*)-2-(3-chloro-2-fluorophenyl)-N-(6-(((6-cyclopropylimidazo[1,2-a]pyridin-2-yl)methyl)amino)pyrimidin-4-yl)cyclopropane-1-carboxamide]",10 to 100
14,"O=C(O)CCc1cc(C2CC2)cn2cc(CNc3cc(NC(=O)[C@H]4C[C@@H]4c4cccc(Cl)c4)ncn3)nc12 (racemic) [Example 72, rac-3-(2-(((6-((1S*,2S*)-2-(3-chlorophenyl)cyclopropane-1-carboxamido)pyrimidin-4-yl)amino)methyl)-6-cyclopropylimidazo[1,2-a]pyridin-8-yl)propanoic acid]",1 to 10
15,"CCc1cc(N2CC(=O)N(C)C2=O)c2nc(CNc3cc(NC(=O)[C@H]4C[C@@H]4c4nccc(C)n4)ncn3)cn2c1 [Example 538, (1S,2S)-N-(6-(((6-ethyl-8-(3-methyl-2,4-dioxoimidazolidin-1-yl)imidazo[1,2-a]pyridin-2-yl)methyl)amino)pyrimidin-4-yl)-2-(4-methylpyrimidin-2-yl)cyclopropane-1-carboxamide]",< 1
16,"CCOC(=O)c1cnc(NC(=O)[C@H]2C[C@@H]2c2nccc(C)n2)nc1OCc1cn2cc(C3CC3)cc(N3CC(=O)N(C)C3=O)c2n1 [Example I-654, ethyl 4-((6-cyclopropyl-8-(3-methyl-2,4-dioxoimidazolidin-1-yl)imidazo[1,2-a]pyridin-2-yl)methoxy)-2-((1S,2S)-2-(4-methylpyrimidin-2-yl)cyclopropane-1-carboxamido)pyrimidine-5-carboxylate]",< 1
17,"O=C(Nc1cc(NCc2cn3cc(C4CC4)ccc3n2)ccn1)[C@H]1C[C@@H]1c1ccnc(Cl)c1 (racemic) [Example I-220, rac-(1S*,2S*)-2-(2-chloropyridin-4-yl)-N-(4-(((6-cyclopropylimidazo[1,2-a]pyridin-2-yl)methyl)amino)pyridin-2-yl)cyclopropane-1-carboxamide]",10 to 100
18,"Cc1ccnc([C@H]2C[C@@H]2C(=O)Nc2cc(NCc3cn4cc(C5CC5)cc(N5CC(=O)N(C)C5=O)c4n3)c(F)cc2F)n1 [Example 659, (1S,2S)—N-(5-(((6-cyclopropyl-8-(3-methyl-2,4-dioxoimidazolidin-1-yl)imidazo[1,2-a]pyridin-2-yl)methyl)amino)-2,4-difluorophenyl)-2-(4-methylpyrimidin-2-yl)cyclopropane-1-carboxamide]",1 to 10
19,"Nc1cc(Cl)cc([C@H]2C[C@@H]2C(=O)Nc2cc(NCc3cn4cc(C5CC5)ccc4n3)ncn2)c1 (single isomer, unassigned) [Example I-258, rac-(1S*,2S*)-2-(3-amino-5-chlorophenyl)-N-(6-(((6-cyclopropylimidazo[1,2-a]pyridin-2-yl)methyl)amino)pyrimidin-4-yl)cyclopropane-1-carboxamide]",1000 to 6000
20,"O=C(Nc1nccc2nn(Cc3cn4cc(C5CC5)ccc4n3)cc12)[C@H]1C[C@@H]1c1cccc(Cl)c1 [Example 580, (1S,2S)-2-(3-chlorophenyl)-N-(2-((6-cyclopropylimidazo[1,2-a]pyridin-2-yl)methyl)-2H-pyrazolo[4,3-c]pyridin-4-yl)cyclopropane-1-carboxamide]",1 to 10
21,"O=C(Nc1cc(NCc2cn3cc(C4CC4)ccc3n2)ncn1)[C@H]1C[C@@H]1c1cc(Cl)ccc1C(F)(F)F (racemic) [Example 52, rac-(1S*,2S*)-2-(5-chloro-2-(trifluoromethyl)phenyl)-N-(6-(((6-cyclopropylimidazo[1,2-α]pyridin-2-yl)methyl)amino)pyrimidin-4-yl)cyclopropane-1-carboxamide]",100 to 1000
22,"CCC(=O)O[C@H]1C[C@H](c2cn3cc(C4CC4)cc(N4CC(=O)N(C)C4=O)c3n2)N(c2cc(NC(=O)[C@H]3C[C@@H]3c3nccc(C)n3)ncn2)C1 [Example 425, (3S,5R)-5-(6-cyclopropyl-8-(3-methyl-2,4-dioxoimidazolidin-1-yl)imidazo[1,2-a]pyridin-2-yl)-1-(6-((1S,2S)-2-(4-methylpyrimidin-2-yl)cyclopropane-1-carboxamido)pyrimidin-4-yl)pyrrolidin-3-yl propionate]",10 to 100
23,"O=C(Nc1cc(N(CCO)Cc2cn3cc(C4CC4)ccc3n2)ncn1)[C@H]1C[C@@H]1c1cccc(Cl)c1 [Example 77, (1S,2S)-2-(3-chlorophenyl)-N-(6-(((6-cyclopropylimidazo[1,2-a]pyridin-2-yl)methyl)(2-hydroxyethyl)amino)pyrimidin-4-yl)cyclopropane-1-carboxamide]",10 to 100

# Same assay, conditions: comparative compounds, 500 pM activated kallikrein format; read-out: Primary Dose Response Assay: Average EC50
row,Compound,EC50 [nM]
1,O=c1ccc(NCc2cn3cc(C4CC4)ccc3n2)cn1NC[C@H]1C[C@@H]1c1cccc(Cl)c1,1000 to 6000
